In patent US9067896B2, “Crystalline forms of 3-(2,6-dichloro-3,5-dimethoxy-phenyl)-1-{6-[4-(4-ethyl-piperazin-1-yl) -phenylamino]-pyrimidin-4-yl}-1-methyl-urea and salts thereof” (Novartis AG, priority 2009, dated 2015):
In brackets after ≈: the same amount, converted by molar mass. Where a name gives a salt, the structure may show the parent alone.

How the values were obtained:
Solution stability = type: physicochemical; details: 1 week at 50° C.
Method: The solution stability of the free base was tested in buffers ranging from pH 1 to pH 9 for 1 week at 50° C. At pH 5 and higher, the free base was stable, and after accounting for minor initial impurities, degradation was less than 2%. At pH 3, degradation was about 4% and at pH 1, degradation was about 15%. The stability was also tested in water and several organic solvents (1 week at 50° C.).
Without being bound by mechanism, the stability difference between the free base and phosphate salt may be due to the higher aqueous solubility of the phosphate salt compared to the free base, as well as the tendency of the phosphate salt to cause the pH of water to decrease, which may increase the rate of degradation.

[1] = Determination of solubility (equilibration in solvent, filtrate by HPLC); type: physicochemical
Method: Excess free base (free base of Formula I), its phosphate salt (the monophosphoric acid salt of the free base), or another acid salt was equilibrated in solvents for 1 day at 25±0.5° C. The resultant slurry was filtered and the filtrate used for solubility determination by HPLC.
Solubility of the monohydrate of the anhydrous and monohydrate free base was measured in various aqueous media (e.g., pH 6.8 buffer, pH 4.5 buffer, pH 1 buffer), including simulated and actual human fluids.
The human fluids were collected from 12 human subjects.
Solubility studies of the phosphate salt were undertaken in aqueous media and in human fluids at 24 hours.

## CCN1CCN(c2ccc(Nc3cc(N(C)C(=O)Nc4c(Cl)c(OC)cc(OC)c4Cl)ncn3)cc2)CC1 [Free Base, 3-(2,6-Dichloro-3,5-dimethoxy-phenyl)-1-{6-[4-(4-ethyl-piperazin-1-yl)-phenylamino]-pyrimidin-4-yl}-1-methyl-urea]
Solution stability; 1:1 acetonitrile/water, listed as free base
  degradation in solution: about 8%
Solution stability; buffer pH 1
  degradation in solution: about 15%
Solution stability; buffer pH 3
  degradation in solution: about 4%
Solution stability; buffers pH 5 and higher
  degradation in solution: less than 2%
Solution stability; isopropanol
  degradation in solution: stable
Solution stability; water, listed as free base
  degradation in solution: stable
[1]; Fasted State Simulated Intestinal Fluid (FaSSIF), listed as Anhydrous Free Base
  Solubility in mg/ml after 24 h: 0.001 mg/mL (≈ 1.78 µM)
[1]; Fed State Simulated Intestinal Fluid (FeSSIF), listed as Anhydrous Free Base
  Solubility in mg/ml after 24 h: 0.148 mg/mL (≈ 264 µM)
[1]; HIF, fed, listed as Anhydrous Free Base
  Solubility in mg/ml after 24 h: 0.004 mg/mL (≈ 7.14 µM)
[1]; Human gastric fluid (HGF), listed as Anhydrous Free Base
  Solubility in mg/ml after 24 h: 0.001 mg/mL (≈ 1.78 µM)
[1]; Human intestinal fluid (HIF) fasted, listed as Anhydrous Free Base
  Solubility in mg/ml after 24 h: 0.002 mg/mL (≈ 3.57 µM)
[1]; Simulated Gastric Fluid (SGF), listed as Anhydrous Free Base
  Solubility in mg/ml after 24 h: 0.0497 mg/mL (≈ 88.7 µM)
[1]; listed as anhydrous free base
  solubility in common organic solvents (in words): sparingly to slightly soluble
[1]; initial solubility test, Water
  Solubility: 1 µg/mL (≈ 1.78 µM)
[1]; initial solubility test, pH3 Buffer
  Solubility: 200 µg/mL (≈ 357 µM)
[1]; pH 1 HCl, 25 °C, pH 1, simulated gastric fluid, thermodynamic from solid, pH 1 HCl, read-out: Solubility in mg/ml after 24 h
  solubility at 24 h: 0.052 mg/mL (≈ 92.8 µM)
[1]; pH 6.8 buffer, listed as anhydrous free base
  Solubility: ca. 0.00004 mg/mL
[1]; ph 4.5 Acetate, listed as Anhydrous Free Base
  Solubility in mg/ml after 24 h: 0.008 mg/mL (≈ 14.3 µM)
[1]; ph 6.8 Phosphate
  Solubility in mg/ml after 24 h: <LOQ*
[1]; water (free base: pH 6.67), listed as anhydrous free base
  Solubility: ~0.09 µg/mL (≈ 0.161 µM)

## CCN1CCN(c2ccc(Nc3cc(N(C)C(=O)Nc4c(Cl)c(OC)cc(OC)c4Cl)ncn3)cc2)CC1 [Phosphate salt (form A)]
Solution stability; 1:1 acetonitrile/water, listed as phosphate salt
  degradation in solution: ~70%
Solution stability; acetonitrile, form A
  degradation in solution: stable
Solution stability; methanol, form A
  degradation in solution: about 8%
Solution stability; water, listed as phosphate salt
  degradation in solution: about 45%
[1]; Fasted State Simulated Intestinal Fluid (FaSSIF), listed as Phosphate Salt
  Solubility in mg/ml after 24 h: 0.003 mg/mL
[1]; Fed State Simulated Intestinal Fluid (FeSSIF), listed as Phosphate Salt
  Solubility in mg/ml after 24 h: 1.067 mg/mL
[1]; HIF, fed, listed as Phosphate Salt
  Solubility in mg/ml after 24 h: 0.00141 mg/mL
[1]; Human gastric fluid (HGF), listed as Phosphate Salt
  Solubility in mg/ml after 24 h: 0.0115 mg/mL
[1]; Human intestinal fluid (HIF) fasted, listed as Phosphate Salt
  Solubility in mg/ml after 24 h: 0.00223 mg/mL
[1]; Simulated Gastric Fluid (SGF), listed as Phosphate Salt
  Solubility in mg/ml after 24 h: 0.088 mg/mL
[1]
  solubility in common organic solvents (in words): sparingly soluble
[1]; initial solubility test, Water, listed as Phosphate
  Solubility: 1700 µg/mL
[1]; initial solubility test, pH3 Buffer, listed as Phosphate
  Solubility: 39 µg/mL
[1]; pH 1 HCl, listed as Phosphate Salt
  Solubility in mg/ml after 24 h: 0.089 mg/mL
[1]; pH 6.8 buffer
  Solubility: ca. 0.00009 mg/mL
[1]; ph 4.5 Acetate, listed as Phosphate Salt
  Solubility in mg/ml after 24 h: 0.731 mg/mL
[1]; water (free base: pH 6.67)
  Solubility: 1300 µg/mL
